How the values were obtained:
[1] = tested on: human breast cancer MDA-MB-231 subcutaneous tumor; experiment: Subcutaneous tumor model, human breast cancer MDA-MB-231; conditions: 30 mg/kg, once per 7 days, intraperitoneal
Protocol: Cell MM1S is cultured in RPMI1640 medium (HyClone) which contains 10% fetal calf serum (Hohhot Caoyuan Lvye Bioengineering Material Co., Ltd.) and 100 U/mL penicillin and streptomycin (Beyotime).
3) Inoculation, grouping and treatment: collecting cells in logarithmic phase under aseptic conditions and counting; diluting the single cell suspension with the medium containing neither fetal calf serum nor antibiotics to 1×10^7-8 cell/mL for standby. Mixing the cell suspension; injecting 100 μL of cell suspension (5×10^6-2×10^7 cells) subcutaneously with a 1 mL injector on the right side of the back of animals. Weeding out the animals with oversized and undersized tumor when the tumor grows to an average volume of about 120 mm^3 and grouping the qualified animals for treatment and drug administration. Refer to Table 7 for each grouping model and drug administration frequency. Measuring the weight of each model per 2 days and measuring the length and width of the tumor with a vernier caliper; killing the tested animals through cervical dislocation and peeling off their tumors for weight measuring and photographing. Then calculating the tumor inhibition ratio (%) and evaluating the inhibition intensity to tumor with such tumor inhibition ratio.

[2] = tested on: human breast cancer MCF-7 subcutaneous tumor; experiment: Subcutaneous tumor model, human breast cancer MCF-7; conditions: 30 mg/kg, once per 7 days, intraperitoneal

In the case of CC(=O)O[C@H]1C(=O)[C@@]2(C)[C@H]([C@H](OC(=O)c3ccccc3)[C@]3(O)C[C@H](OC(=O)[C@H](O)[C@@H](NC(=O)c4ccccc4)c4ccccc4)C(C)=C1C3(C)C)[C@]1(OC(C)=O)CO[C@@H]1C[C@@H]2O [Paclitaxel], the Death [1] is reported as 0/6, the “Inhibitory rate (%)” value [1] is reported as 59.19% and the Death [2] is reported as 0/6. The “Inhibitory rate (%)” value [2] was 77.73%.
